According to patent publication US8952157B2, “Apoptosis-inducing agents for the treatment of cancer and immune and autoimmune diseases” (AbbVie Inc., priority 2008, dated 2015):

Biological target: GST-Bcl-2 (Homo sapiens (Human), UniProt P10415)
Test: Time Resolved-Fluorescence Resonance Energy Transfer (TR-FRET) Bcl-2 binding assay
Settings: not given
Outline: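 Ki values derived from TR-FRET displacement of F-Bak peptide from GST-Bcl-2, detected with Tb-labelled anti-GST antibody (ex 340, em 520/495 nm). Compound dilution series started at 50 μM (2× starting concentration); room-temperature incubation 3 hours.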

GST-Bcl-2, sequence (P10415 whole entry): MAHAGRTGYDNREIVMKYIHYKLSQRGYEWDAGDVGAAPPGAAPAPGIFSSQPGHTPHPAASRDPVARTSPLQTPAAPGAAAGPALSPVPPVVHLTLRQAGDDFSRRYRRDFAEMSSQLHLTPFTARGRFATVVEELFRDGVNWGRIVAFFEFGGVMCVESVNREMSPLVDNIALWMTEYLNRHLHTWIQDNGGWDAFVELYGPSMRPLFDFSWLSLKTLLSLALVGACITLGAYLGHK

Going from `CC1(C)CCC(CN2CCN(c3ccc(C(=O)NS(=O)(=O)c4ccc(O[C@H]5CC[C@H](N6CCOCC6)CC5)c([N+](=O)[O-])c4)c(Oc4cc5cc[nH]c5cc4F)c3)CC2)=C(c2ccc(Cl)cc2)C1` [Example 311, Trans-4-(4-{[2-(4-chlorophenyl)-4,4-dimethylcyclohex-1-en-1-yl]methyl}piperazin-1-yl)-2-[(6-fluoro-1H-indol-5-yl)oxy]-N-({4-[(4-morpholin-4-ylcyclohexyl)oxy]-3-nitrophenyl}sulfonyl)benzamide] to `O=C(NS(=O)(=O)c1ccc(N[C@H]2CC[C@H](N3CCOCC3)CC2)c([N+](=O)[O-])c1)c1ccc(N2CCN(CC3=C(c4ccc(Cl)cc4)CCOCC3)CC2)cc1Oc1cc2cc[nH]c2cc1Cl` [Example 315, Trans-2-[(6-chloro-1H-indol-5-yl)oxy]-4-(4-{[5-(4-chlorophenyl)-2,3,6,7-tetrahydrooxepin-4-yl]methyl}piperazin-1-yl)-N-({4-[(4-morpholin-4-ylcyclohexyl)amino]-3-nitrophenyl}sulfonyl)benzamide], the Ki rises from 0.185 nM to 4.55 nM (25-fold). The first binds more tightly here.

Compared with `O=C(NS(=O)(=O)c1ccc(N[C@H]2CC[C@H](N3CCOCC3)CC2)c(S(=O)(=O)C(F)(F)F)c1)c1ccc(N2CCN(CC3=C(c4ccc(Cl)cc4)CCOCC3)CC2)cc1Oc1cc2cc[nH]c2cc1Cl` [Example 314, Trans-2-[(6-chloro-1H-indol-5-yl)oxy]-4-(4-{[5-(4-chlorophenyl)-2,3,6,7-tetrahydrooxepin-4-yl]methyl}piperazin-1-yl)-N-({4-[(4-morpholin-4-ylcyclohexyl)amino]-3-[(trifluoromethyl)sulfonyl]phenyl}sulfonyl)benzamide], `CC1(C)CCC(CN2CCN(c3ccc(C(=O)NS(=O)(=O)c4ccc(N[C@H]5CC[C@H](N6CCOCC6)CC5)c([N+](=O)[O-])c4)c(Oc4cccc5c4CC(=O)N5)c3)CC2)=C(c2ccc(Cl)cc2)C1` [Example 320, Trans-4-(4-{[2-(4-chlorophenyl)-4,4-dimethylcyclohex-1-en-1-yl]methyl}piperazin-1-yl)-N-({4-[(4-morpholin-4-ylcyclohexyl)amino]-3-nitrophenyl}sulfonyl)-2-[(2-oxo-2,3-dihydro-1H-indol-4-yl)oxy]benzamide] is 110-fold lower in Ki: 3.09 nM for the first, 0.028 nM for the second. The second binds more tightly here.

For `CC1(C)CCC(CN2CCN(c3ccc(C(=O)NS(=O)(=O)c4ccc(N[C@H]5CC[C@H](N6CCOCC6)CC5)c([N+](=O)[O-])c4)c(Oc4cnc(N)c(Cl)c4)c3)CC2)=C(c2ccc(Cl)cc2)C1` [Example 324, Trans-2-[(6-amino-5-chloropyridin-3-yl)oxy]-4-(4-{[2-(4-chlorophenyl)-4,4-dimethylcyclohex-1-en-1-yl]methyl}piperazin-1-yl)-N-({4-[(4-morpholin-4-ylcyclohexyl)amino]-3-nitrophenyl}sulfonyl)benzamide], the Ki was under 0.01 nM.

Same assay, conditions: GST-Bcl-2 1 nM, F-Bak peptide probe 100 nM, Tb-anti-GST antibody 1 nM; Ki by Wang's equation

Going from `CC1(C)CCC(CN2CCN(c3ccc(C(=O)NS(=O)(=O)c4ccc(NCC5CCOCC5)c([N+](=O)[O-])c4)c(Oc4cc(N)cc(Cl)c4)c3)CC2)=C(c2ccc(Cl)cc2)C1` [Example 309, 2-(3-amino-5-chlorophenoxy)-4-(4-{[2-(4-chlorophenyl)-4,4-dimethylcyclohex-1-en-1-yl]methyl}piperazin-1-yl)-N-({3-nitro-4-[(tetrahydro-2H-pyran-4-ylmethyl)amino]phenyl}sulfonyl)benzamide] to `CC1(C)CCC(CN2CCN(c3ccc(C(=O)NS(=O)(=O)c4ccc(NCC5CCOCC5)c([N+](=O)[O-])c4)c(Oc4cnc(N)c(Cl)c4)c3)CC2)=C(c2ccc(Cl)cc2)C1` [Example 318, 2-[(6-amino-5-chloropyridin-3-yl)oxy]-4-(4-{[2-(4-chlorophenyl)-4,4-dimethylcyclohex-1-en-1-yl]methyl}piperazin-1-yl)-N-({3-nitro-4-[(tetrahydro-2H-pyran-4-ylmethyl)amino]phenyl}sulfonyl)benzamide], the Ki falls from 0.69 nM to under 0.01 nM. The second binds more tightly here.

First: CC1(C)CCC(CN2CCN(c3ccc(C(=O)NS(=O)(=O)c4cnc(OCCN5CCOCC5)c(C#N)c4)c(Oc4cc5cc[nH]c5cc4F)c3)CC2)=C(c2ccc(Cl)cc2)C1 [Example 310, 4-(4-{[2-(4-chlorophenyl)-4,4-dimethylcyclohex-1-en-1-yl]methyl}piperazin-1-yl)-N-{[5-cyano-6-(2-morpholin-4-ylethoxy)pyridin-3-yl]sulfonyl}-2-[(6-fluoro-1H-indol-5-yl)oxy]benzamide]
Second: C#Cc1cc(S(=O)(=O)NC(=O)c2ccc(N3CCN(CC4=C(c5ccc(Cl)cc5)CC(C)(C)CC4)CC3)cc2Oc2cc3cc[nH]c3cc2F)cnc1OCC1CCOCC1 [Example 322, 4-(4-{[2-(4-chlorophenyl)-4,4-dimethylcyclohex-1-en-1-yl]methyl}piperazin-1-yl)-N-{[5-ethynyl-6-(tetrahydro-2H-pyran-4-ylmethoxy)pyridin-3-yl]sulfonyl}-2-[(6-fluoro-1H-indol-5-yl)oxy]benzamide]
The Ki of the first is 29-fold lower: 0.155 nM for the first, 4.53 nM for the second.

Compared with `CC1(C)CCC(CN2CCN(c3ccc(C(=O)NS(=O)(=O)c4cnc(NC5CCN(C6CCOCC6)CC5)c(Br)c4)c(Oc4cc5cc[nH]c5cc4F)c3)CC2)=C(c2ccc(Cl)cc2)C1` [Example 312, N-({5-bromo-6-[(1-tetrahydro-2H-pyran-4-ylpiperidin-4-yl)amino]pyridin-3-yl}sulfonyl)-4-(4-{[2-(4-chlorophenyl)-4,4-dimethylcyclohex-1-en-1-yl]methyl}piperazin-1-yl)-2-[(6-fluoro-1H-indol-5-yl)oxy]benzamide], `CC1(C)CCC(CN2CCN(c3ccc(C(=O)NS(=O)(=O)c4cnc(OC5CCN(C6CCOCC6)CC5)c(C#N)c4)c(Oc4cc5cc[nH]c5cc4F)c3)CC2)=C(c2ccc(Cl)cc2)C1` [Example 325, 4-(4-{[2-(4-chlorophenyl)-4,4-dimethylcyclohex-1-en-1-yl]methyl}piperazin-1-yl)-N-({5-cyano-6-[(1-tetrahydro-2H-pyran-4-ylpiperidin-4-yl)oxy]pyridin-3-yl}sulfonyl)-2-[(6-fluoro-1H-indol-5-yl)oxy]benzamide] is 2.9-fold lower in Ki: 0.531 nM for the first, 0.183 nM for the second. The second binds more tightly here.

First: CC1(C)CCC(CN2CCN(c3ccc(C(=O)NS(=O)(=O)c4ccc(OCC5(F)CCOCC5)c([N+](=O)[O-])c4)c(Oc4cccc5c4CC(=O)N5)c3)CC2)=C(c2ccc(Cl)cc2)C1 [Example 313, 4-(4-{[2-(4-chlorophenyl)-4,4-dimethylcyclohex-1-en-1-yl]methyl}piperazin-1-yl)-N-({4-[(4-fluorotetrahydro-2H-pyran-4-yl)methoxy]-3-nitrophenyl}sulfonyl)-2-[(2-oxo-2,3-dihydro-1H-indol-4-yl)oxy]benzamide]
Second: COCCNc1ccc(S(=O)(=O)NC(=O)c2ccc(N3CCN(CC4=C(c5ccc(Cl)cc5)CC(C)(C)CC4)CC3)cc2Oc2cccc3c2CC(=O)N3)cc1[N+](=O)[O-] [Example 321, 4-(4-{[2-(4-chlorophenyl)-4,4-dimethylcyclohex-1-en-1-yl]methyl}piperazin-1-yl)-N-({4-[(2-methoxyethyl)amino]-3-nitrophenyl}sulfonyl)-2-[(2-oxo-2,3-dihydro-1H-indol-4-yl)oxy]benzamide]
The Ki of the first is lower: under 0.01 nM for the first, 0.029 nM for the second.

Compared with `CN1CCN(Nc2ccc(S(=O)(=O)NC(=O)c3ccc(N4CCN(CC5=C(c6ccc(Cl)cc6)CC(C)(C)OC5)CC4)cc3Oc3cc4cc[nH]c4cc3F)cc2[N+](=O)[O-])CC1` [Example 316, 4-(4-{[4-(4-chlorophenyl)-6,6-dimethyl-5,6-dihydro-2H-pyran-3-yl]methyl}piperazin-1-yl)-2-[(6-fluoro-1H-indol-5-yl)oxy]-N-({4-[(4-methylpiperazin-1-yl)amino]-3-nitrophenyl}sulfonyl)benzamide], `CC1(C)CCC(CN2CCN(c3ccc(C(=O)NS(=O)(=O)c4ccc(NC5CCN(C6CC6)CC5)c([N+](=O)[O-])c4)c(Oc4cc5cc[nH]c5cc4F)c3)CC2)=C(c2ccc(Cl)cc2)C1` [Example 327, 4-(4-{[2-(4-chlorophenyl)-4,4-dimethylcyclohex-1-en-1-yl]methyl}piperazin-1-yl)-N-({4-[(1-cyclopropylpiperidin-4-yl)amino]-3-nitrophenyl}sulfonyl)-2-[(6-fluoro-1H-indol-5-yl)oxy]benzamide] is 3.7-fold higher in Ki: 0.058 nM for the first, 0.212 nM for the second.

Going from `CC1(C)CCC(CN2CCN(c3ccc(C(=O)NS(=O)(=O)c4ccc(OCC#CCN5CCOCC5)c([N+](=O)[O-])c4)c(Oc4cc5cc[nH]c5cc4F)c3)CC2)=C(c2ccc(Cl)cc2)C1` [Example 317, 4-(4-{[2-(4-chlorophenyl)-4,4-dimethylcyclohex-1-en-1-yl]methyl}piperazin-1-yl)-2-[(6-fluoro-1H-indol-5-yl)oxy]-N-({4-[(4-morpholin-4-ylbut-2-ynyl)oxy]-3-nitrophenyl}sulfonyl)benzamide] to `CCN1CCOCC1COc1ccc(S(=O)(=O)NC(=O)c2ccc(N3CCN(CC4=C(c5ccc(Cl)cc5)CC(C)(C)CC4)CC3)cc2Oc2cc3cc[nH]c3cc2F)cc1[N+](=O)[O-]` (stereo not shown) [Example 328, 4-(4-{[2-(4-chlorophenyl)-4,4-dimethylcyclohex-1-en-1-yl]methyl}piperazin-1-yl)-N-({4-[(4-ethylmorpholin-3-yl)methoxy]-3-nitrophenyl}sulfonyl)-2-[(6-fluoro-1H-indol-5-yl)oxy]benzamide], the Ki falls from 0.205 nM to 0.068 nM (3-fold). The second binds more tightly here.

First: C#Cc1cc(S(=O)(=O)NC(=O)c2ccc(N3CCN(CC4=C(c5ccc(Cl)cc5)CC(C)(C)OC4)CC3)cc2Oc2cc3cc[nH]c3cc2F)cnc1OCC1CCOCC1 [Example 323, 4-(4-{[4-(4-chlorophenyl)-6,6-dimethyl-5,6-dihydro-2H-pyran-3-yl]methyl}piperazin-1-yl)-N-{[5-ethynyl-6-(tetrahydro-2H-pyran-4-ylmethoxy)pyridin-3-yl]sulfonyl}-2-[(6-fluoro-1H-indol-5-yl)oxy]benzamide]
Second: CC1(C)CCC(CN2CCN(c3ccc(C(=O)NS(=O)(=O)c4cnc(OCC5(F)CCOCC5)c(Cl)c4)c(Oc4cc5cc[nH]c5cc4F)c3)CC2)=C(c2ccc(Cl)cc2)C1 [Example 326, N-({5-chloro-6-[(4-fluorotetrahydro-2H-pyran-4-yl)methoxy]pyridin-3-yl}sulfonyl)-4-(4-{[2-(4-chlorophenyl)-4,4-dimethylcyclohex-1-en-1-yl]methyl}piperazin-1-yl)-2-[(6-fluoro-1H-indol-5-yl)oxy]benzamide]
The Ki of the first is 94-fold higher: 3.48 nM for the first, 0.037 nM for the second. The second binds more tightly here.
